{"source": "ChEMBL document CHEMBL5505995", "about": "“Discovery of novel urea derivatives as ferroptosis and autophagy inducer for human colon cancer treatment” (Eur J Med Chem, 2024)", "key": {"[1]": {"tested_on": "HT-29", "test": "Induction of cell cycle arrest in human HT-29 cells assessed as downregulation of Cyclin B1 expression at 0.5 to 4 uM incubated for 48 hrs by Western blotting analysis", "format": "functional, cell-based", "details": "dose 0.5-4 µM"}, "[2]": {"tested_on": "HT-29", "test": "Induction of autophagy in human HT-29 cells assessed as increase in MDC positive cells incubated for 48 hrs in presence of ROS scavenger NAC by MDC staining based flow cytometric analysis", "format": "functional, cell-based"}, "[3]": {"tested_on": "HT-29", "test": "Induction of ferroptosis in human HT-29 cells assessed as decrease in GPx level incubated for 48 hrs in presence of ferroptosis inhibitor deferoxamine", "format": "functional, cell-based"}, "[4]": {"tested_on": "HT-29", "test": "Induction of ferroptosis in human HT-29 cells assessed as mitochondrial morphological change incubated for 48 hrs by transmission electron microscopic analysis", "format": "functional, cell-based"}, "[5]": {"tested_on": "HT-29", "test": "Antiproliferative activity against human HT-29 cells assessed as inhibition of cell growth incubated for 48 hrs in presence of autophagy inhibitor 3-methyladenine by MTT assay", "format": "functional, cell-based"}, "[6]": {"tested_on": "HT-29", "test": "Induction of ferroptosis in human HT-29 cells assessed as fusion of mitochondrial cristae incubated for 48 hrs in presence of ferroptosis inhibitor deferoxamine by transmission electron microscopic analysis", "format": "functional, cell-based"}, "[7]": {"tested_on": "HT-29", "test": "Induction of cell cycle arrest in human HT-29 cells assessed as […] of CDK1 expression at 0.5 to 4 uM incubated for 48 hrs by Western blotting analysis", "format": "functional, cell-based", "details": "dose 0.5-4 µM"}, "[8]": {"tested_on": "HT-29", "test": "Induction of ferroptosis in human HT-29 cells assessed as decrease in intracellular GSH level incubated for 48 hrs in presence of ferroptosis inhibitor CPX", "format": "functional, cell-based"}, "[9]": {"tested_on": "HT-29", "test": "Induction of ferroptosis in human HT-29 cells incubated for 48 hrs by MTT assay", "format": "functional, cell-based"}, "[10]": {"tested_on": "HT-29", "test": "Induction of ferroptosis in human HT-29 cells assessed as fusion of mitochondrial cristae incubated for 48 hrs by transmission electron microscopic analysis", "format": "functional, cell-based"}, "[11]": {"tested_on": "MCF7", "test": "Antiproliferative activity against human MCF7 cells assessed as inhibition of cell growth incubated for 48 hrs by MTT assay", "format": "functional, cell-based", "details": "MCF7, 48 h"}, "[12]": {"tested_on": "HT-29", "test": "Induction of ferroptosis in human HT-29 cells assessed as decrease in intracellular GSH level incubated for 48 hrs in presence of ferroptosis inhibitor deferoxamine", "format": "functional, cell-based"}, "[13]": {"tested_on": "HT-29", "test": "Induction of cell death in human HT-29 cells incubated for 48 hrs in presence of ferroptosis inhibitor CPX by MTT assay", "format": "functional, cell-based"}, "[14]": {"tested_on": "HT-29", "test": "Induction of ferroptosis in human HT-29 cells assessed as increase in intracellular malondialdehyde accumulation incubated for 48 hrs in presence of autophagy inhibitor 3-methyladenine", "format": "functional, cell-based"}, "[15]": {"tested_on": "HT-29", "test": "Induction of ferroptosis in human HT-29 cells assessed as increase in intracellular malondialdehyde accumulation incubated for 48 hrs in presence of ferroptosis inhibitor CPX", "format": "functional, cell-based"}, "[16]": {"tested_on": "HT-29", "test": "Induction of autophagy in human HT-29 cells assessed as increase in MDC positive cells incubated for 48 hrs in presence of ferroptosis inhibitor deferoxamine by MDC staining based flow cytometric analysis", "format": "functional, cell-based"}, "[17]": {"tested_on": "HT-29", "test": "Induction of ferroptosis in human HT-29 cells assessed as increase in intracellular iron level incubated for 48 hrs in presence of autophagy inhibitor 3-methyladenine", "format": "functional, cell-based"}, "[18]": {"tested_on": "HT-29", "test": "Induction of ferroptosis in human HT-29 cells assessed as increase in mitochondrial membrane density incubated for 48 hrs in presence of ferroptosis inhibitor deferoxamine by transmission electron microscopic analysis", "format": "functional, cell-based"}, "[19]": {"tested_on": "HT-29", "test": "Induction of autophagy in human HT-29 cells assessed as upregulation of ATG7 protein expression incubated for 48 hrs by Western blotting analysis", "format": "functional, cell-based"}, "[20]": {"tested_on": "HT-29", "test": "Induction of ferroptosis in human HT-29 cells assessed as increase in intracellular lipid peroxidation accumulation incubated for 48 hrs in presence of autophagy inhibitor 3-methyladenine by C11 BODIPY 581/591 staining based flow cytometry", "format": "functional, cell-based"}, "[21]": {"tested_on": "HT-29", "test": "Induction of ferroptosis in human HT-29 cells assessed as increase in intracellular iron level incubated for 48 hrs in presence of ferroptosis inhibitor CPX", "format": "functional, cell-based"}, "[22]": {"tested_on": "HeLa", "test": "Antiproliferative activity against human HeLa cells assessed as inhibition of cell growth incubated for 48 hrs by MTT assay", "format": "functional, cell-based"}, "[23]": {"tested_on": "HT-29", "test": "Induction of ferroptosis in human HT-29 cells assessed as decrease in GPx level at 1 to 4 uM incubated for 48 hrs", "format": "functional, cell-based", "details": "dose 1-4 µM"}, "[24]": {"tested_on": "HT-29", "test": "Antiproliferative activity against human HT-29 cells assessed as inhibition of cell growth incubated for 48 hrs in presence of ROS scavenger NAC by MTT assay", "format": "functional, cell-based"}, "[25]": {"tested_on": "HT-29", "test": "Induction of ferroptosis in human HT-29 cells assessed as decrease in intracellular GSH level incubated for 48 hrs in presence of autophagy inhibitor 3-methyladenine", "format": "functional, cell-based"}, "[26]": {"tested_on": "HT-29", "test": "Induction of ferroptosis in human HT-29 cells assessed as increase in intracellular lipid peroxidation accumulation incubated for 48 hrs in presence of ferroptosis inhibitor deferoxamine by C11 BODIPY 581/591 staining based flow cytometry", "format": "functional, cell-based"}, "[27]": {"tested_on": "HT-29", "test": "Induction of cell cycle arrest in human HT-29 cells assessed as accumulation of cells at G2/M phase incubated for 48 hrs by propidium iodide staining based flow cytometric analysis", "format": "functional"}, "[28]": {"tested_on": "HT-29", "test": "Induction of ferroptosis in human HT-29 cells assessed as increase in intracellular iron level incubated for 48 hrs in presence of ferroptosis inhibitor deferoxamine", "format": "functional, cell-based"}, "[29]": {"tested_on": "HT-29", "test": "Induction of ferroptosis in human HT-29 cells assessed as decrease in GPx level incubated for 48 hrs in presence of autophagy inhibitor 3-methyladenine", "format": "functional, cell-based"}, "[30]": {"tested_on": "HT-29", "test": "Induction of apoptosis in human HT-29 cells at 1 to 4 uM incubated for 48 hrs by Annexin V-FITC/PI staining based flow cytometry", "format": "functional, cell-based", "details": "dose 1-4 µM"}, "[31]": {"tested_on": "HT-29", "test": "Antiproliferative activity against human HT-29 cells assessed as inhibition of cell growth incubated for 48 hrs by MTT assay", "format": "functional, cell-based", "details": "HT-29, 48 h"}, "[32]": {"tested_on": "HT-29", "test": "Induction of ferroptosis in human HT-29 cells assessed as increase in intracellular malondialdehyde accumulation incubated for 48 hrs in presence of ROS scavenger NAC", "format": "functional, cell-based"}, "[33]": {"tested_on": "HT-29", "test": "Induction of ferroptosis in human HT-29 cells assessed as mitochondrial morphological change incubated for 48 hrs in presence of ferroptosis inhibitor deferoxamine by transmission electron microscopic analysis", "format": "functional, cell-based"}, "[34]": {"tested_on": "HT-29", "test": "Induction of autophagy in human HT-29 cells assessed as increase in MDC positive cells incubated for 48 hrs by MDC staining based flow cytometric analysis", "format": "functional, cell-based"}, "[35]": {"tested_on": "HT-29", "test": "Induction of ferroptosis in human HT-29 cells assessed as increase in intracellular malondialdehyde accumulation incubated for 48 hrs", "format": "functional, cell-based"}, "[36]": {"tested_on": "HT-29", "test": "Induction of ferroptosis in human HT-29 cells assessed as increase in intracellular lipid peroxidation accumulation incubated for 48 hrs by C11 BODIPY 581/591 staining based flow cytometry", "format": "functional, cell-based"}, "[37]": {"tested_on": "HT-29", "test": "Induction of cell death in human HT-29 cells incubated for 48 hrs in presence of ferroptosis inhibitor deferoxamine by MTT assay", "format": "functional, cell-based"}, "[38]": {"tested_on": "HT-29", "test": "Induction of necrosis in human HT-29 cells incubated for 48 hrs by MTT assay", "format": "functional, cell-based"}, "[39]": {"tested_on": "HT-29", "test": "Induction of ROS production in human HT-29 cells assessed as increase in DCF fluorescence intensity incubated for 48 hrs by DCFH-DA fluorescent probe based flow cytometry", "format": "functional, cell-based"}, "[40]": {"tested_on": "HT-29", "test": "Antiproliferative activity against human HT-29 cells assessed as inhibition of cell growth incubated for 48 hrs in presence of autophagy inhibitor Spautin-1 by MTT assay", "format": "functional, cell-based"}, "[41]": {"tested_on": "HT-29", "test": "Induction of autophagy in human HT-29 cells assessed as upregulation of ATG5 protein expression incubated for 48 hrs by Western blotting analysis", "format": "functional, cell-based"}}, "note": "Calls of active or inactive are those of the source. No cut-off for these calls is given here."}
{"smiles": "COc1ccc2c(c1)NCCN2C(=O)NCCCl", "values": [{"measurement": "Activity", "setting": "[1]", "value": "Active"}, {"measurement": "Activity", "setting": "[2]", "value": "inactive"}, {"measurement": "Activity", "setting": "[3]", "value": "inactive"}, {"measurement": "Activity", "setting": "[4]", "value": "Active"}, {"measurement": "Activity", "setting": "[5]", "value": "inactive"}, {"measurement": "Activity", "setting": "[6]", "value": "inactive"}, {"measurement": "Activity", "setting": "[7]", "value": "Active"}, {"measurement": "Activity", "setting": "[8]", "value": "inactive"}, {"measurement": "Activity", "setting": "[9]", "value": "Active"}, {"measurement": "Activity", "setting": "[10]", "value": "Active"}, {"measurement": "IC50", "setting": "[11]", "value": 7.01, "unit": "µM"}, {"measurement": "Activity", "setting": "[12]", "value": "inactive"}, {"measurement": "Activity", "setting": "[13]", "value": "inactive"}, {"measurement": "Activity", "setting": "[14]", "value": "Active"}, {"measurement": "Activity", "setting": "[15]", "value": "inactive"}, {"measurement": "Activity", "setting": "[16]", "value": "Active"}, {"measurement": "Activity", "setting": "[17]", "value": "Active"}, {"measurement": "Activity", "setting": "[18]", "value": "inactive"}, {"measurement": "Activity", "setting": "[19]", "value": "Dose-Dependent Effect"}, {"measurement": "Activity", "setting": "[20]", "value": "Active"}, {"measurement": "Activity", "setting": "[21]", "value": "inactive"}, {"measurement": "IC50", "setting": "[22]", "value": 6.18, "unit": "µM"}, {"measurement": "Activity", "setting": "[23]", "value": "Active"}, {"measurement": "Activity", "setting": "[24]", "value": "inactive"}, {"measurement": "Activity", "setting": "[25]", "value": "Active"}, {"measurement": "Activity", "setting": "[26]", "value": "inactive"}, {"measurement": "Activity", "setting": "[27]", "value": "Dose-Dependent Effect"}, {"measurement": "Activity", "setting": "[28]", "value": "inactive"}, {"measurement": "Activity", "setting": "[29]", "value": "Active"}, {"measurement": "Activity", "setting": "[30]", "value": "inactive"}, {"measurement": "IC50", "setting": "[31]", "value": 1.97, "unit": "µM"}, {"measurement": "Activity", "setting": "[32]", "value": "inactive"}, {"measurement": "Activity", "setting": "[33]", "value": "inactive"}, {"measurement": "Activity", "setting": "[34]", "value": "Dose-Dependent Effect"}, {"measurement": "Activity", "setting": "[35]", "value": "Dose-Dependent Effect"}, {"measurement": "Activity", "setting": "[36]", "value": "Dose-Dependent Effect"}, {"measurement": "Activity", "setting": "[37]", "value": "inactive"}, {"measurement": "Activity", "setting": "[38]", "value": "Active"}, {"measurement": "Activity", "setting": "[39]", "value": "Dose-Dependent Effect"}, {"measurement": "Activity", "setting": "[40]", "value": "inactive"}, {"measurement": "Activity", "setting": "[41]", "value": "Dose-Dependent Effect"}]}
